From ChEMBL document CHEMBL3045223, “Synthesis, nematicidal and antimicrobial properties of Bis-[4-methoxy-3-[3-(4-fluorophenyl)-6-(4-methylphenyl)-2(aryl)-tetrahydro-2H-pyrazolo[3,4-d]thiazol-5-yl]phenyl]methanes” (2009)
Values after ≈ are worked out from the molar mass of the structure shown. Active and inactive are the calls of the source. The rule behind the calls is not given here.

What was measured:
Type in all cases: functional
[1] = system: Lysinibacillus sphaericus; test: Antibacterial activity against Lysinibacillus sphaericus MTCC 11 assessed as growth arrest at 37 degC for 24 hr; settings: MTCC 11, 24 h
[2] = system: Lysinibacillus sphaericus; test: Antibacterial activity against Lysinibacillus sphaericus MTCC 11 assessed as inhibition zones at 300 ug/disk at 37 degC for 24 hr; settings: MTCC 11, 24 h, read-out: IZ
Candida albicans [3] = test: Antifungal activity against Candida albicans ATCC 10231 assessed as growth inhibition at 300 ug/disk at 37 degC for 48 hr
[4] = system: Trichophyton mentagrophytes; test: Antifungal activity against Trichophyton mentagrophytes IFO 40996 assessed as growth inhibition at 300 ug/disc at 37 degC for 48 hr
Trichophyton rubrum [5] = test: Antifungal activity against Trichophyton rubrum IFO 9185 assessed as growth inhibition at 37 degC for 48 hr
Aspergillus fumigatus [6] = test: Antifungal activity against Aspergillus fumigatus HIC 6094 assessed as growth inhibition at 37 degC for 48 hr
Pseudomonas aeruginosa [7] = test: Antibacterial activity against Pseudomonas aeruginosa MTCC 741 assessed as inhibition zones at 300 ug/disk at 37 degC for 24 hr; settings: MTCC 741, 24 h, read-out: IZ
[8] = system: Trichophyton mentagrophytes; test: Antifungal activity against Trichophyton mentagrophytes IFO 40996 assessed as growth inhibition at 37 degC for 48 hr
Pseudomonas aeruginosa [9] = test: Antibacterial activity against Pseudomonas aeruginosa MTCC 741 assessed as growth arrest at 37 degC for 24 hr; settings: MTCC 741, 24 h
Aspergillus fumigatus [10] = test: Antifungal activity against Aspergillus fumigatus HIC 6094 assessed as growth inhibition at 300 ug/disc at 37 degC for 48 hr; settings: for zone of inhibition at 300 µg/disc: HIC 6094, 48 h, read-out: IZ
Klebsiella aerogenes [11] = test: Antibacterial activity against Enterobacter aerogenes MTCC 39 assessed as growth arrest at 37 degC for 24 hr; settings: MTCC 39, 24 h
Candida albicans [12] = test: Antifungal activity against Candida albicans ATCC 10231 assessed as growth inhibition at 37 degC for 48 hr; settings: ATCC 10231, 48 h
[13] = system: Chromobacterium violaceum; test: Antibacterial activity against Chromobacterium violaceum MTCC 2656 assessed as growth arrest at 37 degC for 24 hr; settings: MTCC 2656, 24 h
[14] = system: Ditylenchus myceliophagus; test: Nematicidal activity against Ditylenchus myceliophagus assessed as immobility; settings: read-out: LD50 (the source's name)
Bacillus subtilis [15] = test: Antibacterial activity against Bacillus subtilis MTCC 441 assessed as growth arrest at 37 degC for 24 hr; settings: MTCC 441, 24 h
Klebsiella aerogenes [16] = test: Antibacterial activity against Enterobacter aerogenes MTCC 39 assessed as inhibition zones at 300 ug/disk at 37 degC for 24 hr; settings: MTCC 39, 24 h, read-out: IZ
Staphylococcus aureus [17] = test: Antibacterial activity against Staphylococcus aureus MTCC 96 assessed as growth arrest at 37 degC for 24 hr; settings: MTCC 96, 24 h
Caenorhabditis elegans = test: Nematicidal activity against Caenorhabditis elegans assessed as immobility; settings: read-out: LD50 (the source's name)
Trichophyton rubrum [18] = test: Antifungal activity against Trichophyton rubrum IFO 9185 assessed as growth inhibition at 300 ug/disk at 37 degC for 48 hr; settings: for zone of inhibition at 300 µg/disc: IFO 9185, 48 h, read-out: IZ
Staphylococcus aureus [19] = test: Antibacterial activity against Staphylococcus aureus MTCC 96 assessed as inhibition zones at 300 ug/disc at 37 degC for 24 hr; settings: MTCC 96, 24 h, read-out: IZ
[20] = system: Chromobacterium violaceum; test: Antibacterial activity against Chromobacterium violaceum MTCC 2656 assessed as inhibition zones at 300 ug/disk at 37 degC for 24 hr; settings: MTCC 2656, 24 h, read-out: IZ
Bacillus subtilis [21] = test: Antibacterial activity against Bacillus subtilis MTCC 441 assessed as inhibition zones at 300 ug/disk at 37 degC for 24 hr; settings: MTCC 441, 24 h, read-out: IZ

| Compound | MBC [1] [µg/mL] | MIC [1] [µg/mL] | zone of inhibition at 300 µg/disc [2] [mm] | zone of inhibition at 300 µg/disc (Pseudomonas aeruginosa [7]) [mm] | MBC (Pseudomonas aeruginosa [9]) [µg/mL] | MIC (Pseudomonas aeruginosa [9]) [µg/mL] | MBC (Klebsiella aerogenes [11]) [µg/mL] | MIC (Klebsiella aerogenes [11]) [µg/mL] | MBC (Candida albicans [12]) [µg/mL] | MIC (Candida albicans [12]) [µg/mL] | MBC [13] [µg/mL] | MIC [13] [µg/mL] | LC50 [14] [µg/mL] | MBC (Bacillus subtilis [15]) [µg/mL] | MIC (Bacillus subtilis [15]) [µg/mL] | zone of inhibition at 300 µg/disc (Klebsiella aerogenes [16]) [mm] | MBC (Staphylococcus aureus [17]) [µg/mL] | MIC (Staphylococcus aureus [17]) [µg/mL] | LC50 (Caenorhabditis elegans) [µg/mL] | zone of inhibition at 300 µg/disc (Staphylococcus aureus [19]) [mm] | further results |
| --- | --- | --- | --- | --- | --- | --- | --- | --- | --- | --- | --- | --- | --- | --- | --- | --- | --- | --- | --- | --- | --- |
| COc1ccc(Cc2ccc(OC)c(C3SC4C(=NN(Cc5ccccc5)C4c4ccc(F)cc4)N3c3ccc([N+](=O)[O-])cc3)c2)cc1C1SC2C(=NN(Cc3ccccc3)C2c2ccc(F)cc2)N1c1ccc([N+](=O)[O-])cc1 (stereo unspecified) | 50 (≈ 45.7 µM) | 12.5 (≈ 11.4 µM) | 21 | 10 | 50 (≈ 45.7 µM) | 12.5 (≈ 11.4 µM) | 25 (≈ 22.9 µM) | 12.5 (≈ 11.4 µM) | 25 (≈ 22.9 µM) | 12.5 (≈ 11.4 µM) | 12.5 (≈ 11.4 µM) | 6.25 (≈ 5.72 µM) | 190 (≈ 174 µM) | 12.5 (≈ 11.4 µM) | 6.25 (≈ 5.72 µM) | 19 | 50 (≈ 45.7 µM) | 12.5 (≈ 11.4 µM) | 190 (≈ 174 µM) | 19 | zone of inhibition at 300 µg/disc (Candida albicans [3]; ATCC 10231, 48 h, read-out: IZ): 19 mm; zone of inhibition at 300 µg/disc ([4]; IFO 40996, 48 h, read-out: IZ): 13 mm; MBC (Trichophyton rubrum [5]): inactive; MIC (Trichophyton rubrum [5]): inactive; MBC (Aspergillus fumigatus [6]): inactive; MIC (Aspergillus fumigatus [6]): inactive; MBC [8]: inactive; MIC [8]: inactive; zone of inhibition at 300 µg/disc (Aspergillus fumigatus [10]): 16 mm; zone of inhibition at 300 µg/disc (Trichophyton rubrum [18]): 11 mm; zone of inhibition at 300 µg/disc [20]: 13 mm; zone of inhibition at 300 µg/disc (Bacillus subtilis [21]): 15 mm |
| COc1ccc(Cc2ccc(OC)c(C3SC4C(=NN(C(C)C)C4c4ccc(F)cc4)N3c3ccc(C)cc3)c2)cc1C1SC2C(=NN(C(C)C)C2c2ccc(F)cc2)N1c1ccc(C)cc1 (stereo unspecified) | 50 (≈ 53.5 µM) | 50 (≈ 53.5 µM) | 13 | 23 | 12.5 (≈ 13.4 µM) | 6.25 (≈ 6.68 µM) | 12.5 (≈ 13.4 µM) | 12.5 (≈ 13.4 µM) | 25 (≈ 26.7 µM) | 12.5 (≈ 13.4 µM) | 25 (≈ 26.7 µM) | 25 (≈ 26.7 µM) | 550 (≈ 588 µM) | 50 (≈ 53.5 µM) | 25 (≈ 26.7 µM) | 19 | 50 (≈ 53.5 µM) | 25 (≈ 26.7 µM) | 600 (≈ 642 µM) | 23 | inhibition zone (IZ) (Candida albicans [3]): inactive; inhibition zone (IZ) [4]: inactive; MBC (Trichophyton rubrum [5]): inactive; MIC (Trichophyton rubrum [5]): inactive; MBC (Aspergillus fumigatus [6]): inactive; MIC (Aspergillus fumigatus [6]): inactive; MBC [8]: inactive; MIC [8]: inactive; zone of inhibition at 300 µg/disc (Aspergillus fumigatus [10]): 13 mm; inhibition zone (IZ) (Trichophyton rubrum [18]): inactive; zone of inhibition at 300 µg/disc [20]: 16 mm; zone of inhibition at 300 µg/disc (Bacillus subtilis [21]): 13 mm |
| COc1ccc(Cc2ccc(OC)c(C3SC4C(=NN(C(C)C)C4c4ccc(F)cc4)N3c3ccc([N+](=O)[O-])cc3)c2)cc1C1SC2C(=NN(C(C)C)C2c2ccc(F)cc2)N1c1ccc([N+](=O)[O-])cc1 (stereo unspecified) | 50 (≈ 50.1 µM) | 50 (≈ 50.1 µM) | 13 | 10 | 25 (≈ 25.1 µM) | 25 (≈ 25.1 µM) | 25 (≈ 25.1 µM) | 12.5 (≈ 12.5 µM) | 25 (≈ 25.1 µM) | 25 (≈ 25.1 µM) | 50 (≈ 50.1 µM) | 25 (≈ 25.1 µM) | 510 (≈ 511 µM) | 25 (≈ 25.1 µM) | 25 (≈ 25.1 µM) | 17 | 50 (≈ 50.1 µM) | 25 (≈ 25.1 µM) | 600 (≈ 602 µM) | 23 | inhibition zone (IZ) (Candida albicans [3]): inactive; inhibition zone (IZ) [4]: inactive; MBC (Trichophyton rubrum [5]; IFO 9185, 48 h): 25 µg/mL (≈ 25.1 µM); MIC (Trichophyton rubrum [5]; IFO 9185, 48 h): 12.5 µg/mL (≈ 12.5 µM); MBC (Aspergillus fumigatus [6]; HIC 6094, 48 h): 50 µg/mL (≈ 50.1 µM); MIC (Aspergillus fumigatus [6]; HIC 6094, 48 h): 25 µg/mL (≈ 25.1 µM); MBC ([8]; IFO 40996, 48 h): 25 µg/mL (≈ 25.1 µM); MIC ([8]; IFO 40996, 48 h): 12.5 µg/mL (≈ 12.5 µM); inhibition zone (IZ) (Aspergillus fumigatus [10]): inactive; zone of inhibition at 300 µg/disc (Trichophyton rubrum [18]): 9 mm; zone of inhibition at 300 µg/disc [20]: 15 mm; zone of inhibition at 300 µg/disc (Bacillus subtilis [21]): 18 mm |
